Assay results from publication PMC7274154, “Identification and Characterization of GPCRs for Pyrokinin and CAPA Peptides in the Brown Marmorated Stink Bug, Halyomorpha halys (Hemiptera: Pentatomidae)” (Frontiers in Physiology, 2020).
Entries after “also recorded” stand apart in the source; their conditions may differ. Where no end group is shown, it is not given here.

Experiments:
Type in all cases: cell-based, Halyomorpha halys
HalhaPK-R1b [1] = experiment: Concentration-response, calcium mobilization (FLIPR Calcium 6) in Sf9 cells expressing HalhaPK-R1b; conditions: for EC50: HalhaPK-R1b in Sf9 cells, intracellular calcium, FLIPR Calcium 6 fluorescence, at least three independent experiments, read-out: Half-maximum effective concentration (EC50)
Experimental: (§1) Five micrograms of each purified pIB/HalhaPK-R (or CAPA-R) plasmid and 15 μL of Cellfectin II reagent (Thermo Fisher Scientific) were diluted into 500 μL of serum free Insectagro Sf9 medium (Corning, Corning, NY, United States) and allowed to incubate for 10 min at room temperature, after which they were mixed together and allowed to incubate for an additional 15–20 min. Each pIB/HalhaPK-R (or CAPA-R) Cellfectin mixture was then added to T-25 cell culture flasks containing Sf9 cells at 50% confluency and incubated overnight at 28°C. The following morning the media was removed from each flask and replaced with media containing 20 μg/mL blasticidin (Corning). Each transfected cell line was cultured in the presence of 20 μg/mL blasticidin for ∼3 weeks until a blasticidin-resistant cell line was established, after which the blasticidin concentration was reduced to 10 μg/mL and the cell lines were frozen prior to testing in functional assays.
(§2) Peptides encoded by H. halys pyrokinin and capa genes used in this study have been recently identified ([Ahn and Choi, 2018]). Four peptides (>95% purity): PK2 (FYAPFSPRLa), CAPA-PVK1 ([…]a), CAPA-PVK2 (EQLIPFPRVa), and CAPA-DH (= PK1-like, […]a) were synthesized to contain an amide group on their C-termini (Peptide 2.0 Inc., Chantilly, VA, United States). Peptides were solubilized in water, aliquoted into 2–20 nM working stocks, dried using a DNA120 SpeedVac Concentrator (Thermo Scientific), and frozen at –20°C until use in binding assays.
(§3) For each cell line expressing a specific H. halys PRXamide receptor, cells were thawed and cultured for at least three passages in a suspension culture containing blasticidin prior to functional assays. The transfected cell lines were grown as 20 mL suspension cultures in 50 mL-Erlenmeyer flasks with a screw cap, and shaken at 145 rpm at 28°C. For functional assays, cells were taken from a suspension culture in the exponential growth phase, and ∼50,000 cells were plated into each well of a tissue culture-treated, black-walled, 96-well plate (Corning). The plated cells were then incubated at 28°C for 48 h, after which the media was removed from the plates and the wells were rinsed with serum-free media, then loaded with 95 μL of 1X FLIPR Calcium 6 assay reagent (Molecular Devices, Sunnyvale, CA, United States). Plates were incubated at room temperature for 60 min then transferred to a FlexStation 3 Multi-Mode Microplate Reader (Molecular Devices) to measure cell fluorescence intensity from intracellular calcium influx after peptide-induced receptor activation. Wells of cells were then treated with 5 μL of water or 20X concentrations of each peptide using the automated injection system of the FlexStation plate reader. In all experiments, fluorescence was measured every 5 s for 30 s prior to treatment and for 2 min after exposure. In all cases, the maximum response obtained occurred ∼20 s after exposure to ligand. The mean response of four wells receiving the same treatment was calculated and expressed as a change in fluorescence from baseline (prior to treatment) to maximum response. For initial screening, each cell line was exposed to a single concentration of 500 nM of each peptide or control. Compounds that elicited responses were tested further in concentration-response experiments. […]

HalhaPK-R1a [2] = experiment: Concentration-response, calcium mobilization (FLIPR Calcium 6) in Sf9 cells expressing HalhaPK-R1a; conditions: for EC50: HalhaPK-R1a in Sf9 cells, intracellular calcium, FLIPR Calcium 6 fluorescence, at least three independent experiments, read-out: Half-maximum effective concentration (EC50)
Experimental: as §1, §2, §3

HalhaCAPA-R = experiment: Concentration-response, calcium mobilization (FLIPR Calcium 6) in Sf9 cells expressing HalhaCAPA-R; conditions: for EC50: HalhaCAPA-R in Sf9 cells, intracellular calcium, FLIPR Calcium 6 fluorescence, at least three independent experiments, read-out: Half-maximum effective concentration (EC50); for Response in functional assay (words): HalhaCAPA-R, Sf9 cells, concentration-response
Experimental: as §1, §2
(§4) For each cell line expressing a specific H. halys PRXamide receptor, cells were thawed and cultured for at least three passages in a suspension culture containing blasticidin prior to functional assays. The transfected cell lines were grown as 20 mL suspension cultures in 50 mL-Erlenmeyer flasks with a screw cap, and shaken at 145 rpm at 28°C. For functional assays, cells were taken from a suspension culture in the exponential growth phase, and ∼50,000 cells were plated into each well of a tissue culture-treated, black-walled, 96-well plate (Corning). The plated cells were then incubated at 28°C for 48 h, after which the media was removed from the plates and the wells were rinsed with serum-free media, then loaded with 95 μL of 1X FLIPR Calcium 6 assay reagent (Molecular Devices, Sunnyvale, CA, United States). Plates were incubated at room temperature for 60 min then transferred to a FlexStation 3 Multi-Mode Microplate Reader (Molecular Devices) to measure cell fluorescence intensity from intracellular calcium influx after peptide-induced receptor activation. Wells of cells were then treated with 5 μL of water or 20X concentrations of each peptide using the automated injection system of the FlexStation plate reader. In all experiments, fluorescence was measured every 5 s for 30 s prior to treatment and for 2 min after exposure. In all cases, the maximum response obtained occurred ∼20 s after exposure to ligand. The mean response of four wells receiving the same treatment was calculated and expressed as a change in fluorescence from baseline (prior to treatment) to maximum response. For initial screening, each cell line was exposed to a single concentration of 500 nM of each peptide or control. Compounds that elicited responses were tested further in concentration-response experiments. Concentration-response curves and EC50 values were generated using the variable slope, four parameter non-linear regression function of GraphPad Prism data analysis (GraphPad Software, Inc., San Diego, CA, United States). Each cell line was tested for its response to peptides in at least three independent experiments.

HalhaPK-R2 [3] = experiment: Concentration-response, calcium mobilization (FLIPR Calcium 6) in Sf9 cells expressing HalhaPK-R2; conditions: for EC50: HalhaPK-R2 in Sf9 cells, intracellular calcium, FLIPR Calcium 6 fluorescence, at least three independent experiments, read-out: Half-maximum effective concentration (EC50); for Response in functional assay (words): HalhaPK-R2, Sf9 cells, concentration-response
Experimental: as §1, §2, §4

HalhaPK-R3b [4] = experiment: Concentration-response, calcium mobilization (FLIPR Calcium 6) in Sf9 cells expressing HalhaPK-R3b; conditions: for EC50: HalhaPK-R3b in Sf9 cells, intracellular calcium, FLIPR Calcium 6 fluorescence, at least three independent experiments, read-out: Half-maximum effective concentration (EC50); for Response in functional assay (words): HalhaPK-R3b, Sf9 cells, concentration-response
Experimental: as §1, §2, §4

HalhaPK-R3a [5] = experiment: Concentration-response, calcium mobilization (FLIPR Calcium 6) in Sf9 cells expressing HalhaPK-R3a; conditions: for EC50: HalhaPK-R3a in Sf9 cells, intracellular calcium, FLIPR Calcium 6 fluorescence, at least three independent experiments, read-out: Half-maximum effective concentration (EC50); for Response in functional assay (words): HalhaPK-R3a, Sf9 cells, concentration-response
Experimental: as §1, §2, §4

HalhaPK-R1b [6] = experiment: Initial screening at 500 nM, Sf9 cells expressing HalhaPK-R1b; conditions: three independent experiments
Experimental: as §1, with “Each transfected cell line was cultured in the presence of 20 μg/mL blasticidin for ∼3 weeks until a blasticidin-resistant cell line was established, after which the blasticidin concentration was reduced to 10 μg/mL and the cell lines were frozen prior to testing in functional assays.” left out
(§5) For each cell line expressing a specific H. halys PRXamide receptor, cells were thawed and cultured for at least three passages in a suspension culture containing blasticidin prior to functional assays. […] Plates were incubated at room temperature for 60 min then transferred to a FlexStation 3 Multi-Mode Microplate Reader (Molecular Devices) to measure cell fluorescence intensity from intracellular calcium influx after peptide-induced receptor activation. Wells of cells were then treated with 5 μL of water or 20X concentrations of each peptide using the automated injection system of the FlexStation plate reader. In all experiments, fluorescence was measured every 5 s for 30 s prior to treatment and for 2 min after exposure. […]

HalhaPK-R3b [7] = experiment: Initial screening at 500 nM, Sf9 cells expressing HalhaPK-R3b; conditions: three independent experiments
Experimental: as §1, with “Each transfected cell line was cultured in the presence of 20 μg/mL blasticidin for ∼3 weeks until a blasticidin-resistant cell line was established, after which the blasticidin concentration was reduced to 10 μg/mL and the cell lines were frozen prior to testing in functional assays.” left out
as §5

HalhaPK-R3a [8] = experiment: Initial screening at 500 nM, Sf9 cells expressing HalhaPK-R3a; conditions: three independent experiments
Experimental: as §1, with “Each transfected cell line was cultured in the presence of 20 μg/mL blasticidin for ∼3 weeks until a blasticidin-resistant cell line was established, after which the blasticidin concentration was reduced to 10 μg/mL and the cell lines were frozen prior to testing in functional assays.” left out
as §5

HalhaPK-R1a [9] = experiment: Initial screening at 500 nM, Sf9 cells expressing HalhaPK-R1a; conditions: three independent experiments
Experimental: as §1, with “Each transfected cell line was cultured in the presence of 20 μg/mL blasticidin for ∼3 weeks until a blasticidin-resistant cell line was established, after which the blasticidin concentration was reduced to 10 μg/mL and the cell lines were frozen prior to testing in functional assays.” left out
as §5

HalhaPK-R2 [10] = experiment: Initial screening at 500 nM, Sf9 cells expressing HalhaPK-R2; conditions: three independent experiments
Experimental: as §1, with “Each transfected cell line was cultured in the presence of 20 μg/mL blasticidin for ∼3 weeks until a blasticidin-resistant cell line was established, after which the blasticidin concentration was reduced to 10 μg/mL and the cell lines were frozen prior to testing in functional assays.” left out
as §5

Row | Compound | EC50 (HalhaPK-R1b [1]) | EC50 (HalhaPK-R1a [2]) | EC50 (HalhaCAPA-R) | Response in functional assay (words) (HalhaCAPA-R) | EC50 (HalhaPK-R2 [3]) | EC50 (HalhaPK-R3b [4]) | EC50 (HalhaPK-R3a [5]) | Ligand-induced receptor activation (response in words) (HalhaPK-R1b [6]) | Ligand-induced receptor activation (response in words) (HalhaPK-R3b [7]) | Ligand-induced receptor activation (response in words) (HalhaPK-R3a [8]) | Response in functional assay (words) (HalhaPK-R3a [5]) | Ligand-induced receptor activation (response in words) (HalhaPK-R1a [9]) | Ligand-induced receptor activation (response in words) (HalhaPK-R2 [10]) | also measured
1 | CC(C)C[C@H](NC(=O)CNC(=O)[C@H](C)NC(=O)[C@@H](N)CC(=O)O)C(=O)N[C@@H](Cc1ccccc1)C(=O)N1CCC[C@H]1C(=O)N[C@@H](Cc1ccccc1)C(=O)N1CCC[C@H]1C(=O)N[C@@H](CCCNC(=N)N)C(=O)N[C@H](C(N)=O)C(C)C [CAPA-PVK1] | > 1 µM | > 1 µM | 0.08 µM | responded specifically to PVK1 and PVK2 peptides; also recorded: concentration-dependent response to PVK1 and PVK2 (Figure 2), with similar sensitivity and degree of absolute magnitude | > 1 µM | > 1 µM | > 1 µM |  |  |  |  |  |  | 
2 | CC[C@H](C)[C@H](NC(=O)[C@H](CC(C)C)NC(=O)[C@H](CCC(N)=O)NC(=O)[C@@H](N)CCC(=O)O)C(=O)N1CCC[C@H]1C(=O)N[C@@H](Cc1ccccc1)C(=O)N1CCC[C@H]1C(=O)N[C@@H](CCCNC(=N)N)C(=O)N[C@H](C(N)=O)C(C)C [CAPA-PVK2] | > 1 µM | > 1 µM | 0.057 µM | responded specifically to PVK1 and PVK2 peptides; also recorded: concentration-dependent response to PVK1 and PVK2 (Figure 2), with similar sensitivity and degree of absolute magnitude | > 1 µM | > 1 µM | > 1 µM |  |  |  |  |  |  | 
3 | FYAPFSPRL-NH2 [PBAN/PK2] | 0.42 µM | > 1 µM | > 1 µM |  | 0.035 µM | 0.142 µM | 0.199 µM | responded to PK2 and CAPA-DH peptides to varying degrees | responded to PK2 and CAPA-DH peptides to varying degrees | responded to PK2 and CAPA-DH peptides to varying degrees | positive concentration-dependent activity | responded to PK2 and CAPA-DH peptides to varying degrees | responded to PK2 and CAPA-DH peptides to varying degrees | Response in functional assay (words) (HalhaPK-R1b [1]; HalhaPK-R1b, Sf9 cells, concentration-response): positive concentration-dependent activity; also recorded: responded weakly; Response in functional assay (words) (HalhaPK-R1a [2]; HalhaPK-R1a, Sf9 cells, concentration-response): positive concentration-dependent activity; also recorded: responded weakly; Response in functional assay (words) (HalhaPK-R2 [3]): strongest response; also recorded: responded strongly; also recorded: positive concentration-dependent activity; also recorded: much more sensitive to PK2 than the PK1 peptide; Response in functional assay (words) (HalhaPK-R3b [4]): positive concentration-dependent activity; also recorded: strongly responded to both PK1 and PK2 peptides
4 | NGASGNGGLWFGPRL-NH2 [CAPA-DH/PK1] | > 1 µM | > 1 µM | > 1 µM |  | 0.8 µM | 0.091 µM | 0.66 µM | responded to PK2 and CAPA-DH peptides to varying degrees | responded to PK2 and CAPA-DH peptides to varying degrees | responded to PK2 and CAPA-DH peptides to varying degrees | concentration-dependent responses | responded to PK2 and CAPA-DH peptides to varying degrees | responded to PK2 and CAPA-DH peptides to varying degrees | Response in functional assay (words) (HalhaPK-R2 [3]; listed as CAPA-DH): concentration-dependent responses; Response in functional assay (words) (HalhaPK-R2 [3]; listed as PK1): moderate response; Response in functional assay (words) (HalhaPK-R3b [4]; listed as CAPA-DH): highest sensitivity to PK1 (= CAPA-DH), especially for HalhaPK-R3b; also recorded: concentration-dependent responses; also recorded: most sensitive to CAPA-DH among the six GPCRs; Response in functional assay (words) (HalhaPK-R3b [4]; listed as PK1): strongest response to PK1; also recorded: strongly responded to both PK1 and PK2 peptides
